Measurements as given in USRE47512E1, “Imidazole and imidazolium resins and methods for preparing curable imidazolium antimicrobial resins” (DENTSPLY SIRONA INC., priority 2011, dated 2019).

Experiment: Solubility of resins @ 37° C.
Assay type: physicochemical

Substance | Solubility @ 37° C. in water (Table I) | Solubility @ 37° C. in water/ethanol (50:50, w/w %) (Table I) | Solubility @ 37° C. in EtOH (Table II, EtOH) | Solubility @ 37° C. in water/ethanol (50:50, w/w %) (Table II)
HEMA-based Monoimidazole-dimethacrylate Resin [Example 3a] | partially | soluble |  | 
Isosorbide-based Bisimidazole-dimethacrylate Resin [Example 1] | partially | soluble |  | 
Isosorbide-based Bisimidazoliumbromide-dimethacrylate Resin [Example 5] |  |  | soluble | soluble
TCDC-based Bisimidazole-dimethacrylate Resin [Example 2] | partially | soluble |  | 
